Measured values taken from EP4772510A2, “BENZAZEPINONE COMPOUND AND USE THEREOF” (HANGZHOU BIO-SINCERITY PHARMA-TECHCO., LTD., priority 2023, dated 2025).

Assays:
HT-29 cells = experiment: Inhibition of TNF-α-induced necroptosis of HT-29 cells (SRB method); type: cell-based, human; conditions: Homo sapiens, HT-29, TNF-α 20 ng/mL + BV6 2 µM + Z-VAD-FMK 20 µM, 18 h
Excerpt: Example 57: Inhibition of TNF-α-Induced Necroptosis of HT-29 Cells by Compounds
• 1. Experimental reagents: McCOY's 5A culture medium, fetal bovine serum, penicillin-streptomycin, trypsin, PBS, TNF-α (MCE, HY-P7058), BV6 (MCE, HY-16701), Z-VAD-FMK (MCE, HY-16658B), SRB kit (Shanghai BestBio Biotechnology Co., Ltd., BB-4208-500T). • 2. Experimental instruments: medical low-temperature freezer (Thermo Fisher scientific, 902-ULTS), electrically heated thermostatic water bath (Shanghai Bluepard Instruments Co., Ltd., CD-420), low-speed centrifuge (ANHUI USTC Zonkia Scientific Instruments Co., Ltd, SC-3616), carbon dioxide incubator (Shanghai Bluepard Instruments Co., Ltd., BPN-150CH(UV)), inverted microscope (Olympus, CKX53), multi-functional microplate reader (Thermo Tecan, SPARK), class-II biosafety cabinet (AIRTECH, BSC-1304IIA2), and desktop cell counter (Thermo Fisher Scientific, Countess II). • 3. Cell culturing: HT-29 cells (human colon cancer cells) were cultured in a McCOY's 5A culture solution containing 10% fetal bovine serum and 1% penicillin-streptomycin solution in a 5% CO 2 at 37 °C and a saturated humidity, and culture medium changes and cell passaging were performed 3-4 times a week. • 4. […] The culture medium, trypsin, etc., were taken out from the freezer and transferred to the water bath for pre-heating. An appropriate amount of these substances was then taken for use. • (2) The old culture medium in the flask was aspirated using a sterile pipette and discarded, and the cells were washed 3 times with PBS. 1 mL of trypsin (25 cm^2 cell culture flask) was added into the flask, and the flask was gently shaken to allow the trypsin to cover all the cell surfaces. Digestion was performed in an incubator at 37 °C. After 2 min of digestion, the flask was placed under a microscope for observation. […] The mixture was gently pipetted using a pipette to homogenize the cells and thus prepare a single-cell suspension, and the cells were counted. • (5) The cells were diluted to 3 × 10^5/mL and seeded into a 96-well plate at 100 µL/well, such that there were 3 × 10^4 cells per well in the 96-well plate. The cells were incubated in a 5% CO2 incubator at 37 °C and a saturated humidity for 24 h, followed by the addition of compounds. • 4.2 Dilution and addition of compounds: • (1) TNF-α was dissolved in PBS to obtain a 100 µg/mL stock solution and aliquoted; Z-VAD-FMK was dissolved in DMSO to obtain a 10 mM stock solution and aliquoted; BV6 was dissolved in DMSO to obtain a 10 mM stock solution and aliquoted; GSK2982772 was dissolved in DMSO to obtain a 10 mM stock solution and aliquoted. One aliquot of each stock solution was stored at -20 °C for immediate use, while the remaining aliquots were stored at - 80 °C and used within their shelf life. • (2) McCOY's 5A culture solution containing TNF-α, BV6, and Z-VAD-FMK was prepared. For the positive control group and the test compound groups, the McCOY's 5A culture solution was added at 90 µL/well, and 10 µL of the culture medium containing the test compound was also added, thus making the final concentrations of TNF-α, BV6, and Z-VAD-FMK be 20 ng/mL, 2 µM, and 20 µM, respectively. For the DMSO (5‰) control group, 90 µL of the McCOY's 5A complete culture solution was added, and then 10 µL of DMSO was added, thus making the final concentration 5‰. • (3) Each target compound was three-fold diluted with a culture medium to 8 concentration gradients, with each concentration set in duplicate (10 µL/well). The final concentrations of each target compound were 1000.00/333.33/111.11/37.04/12.35/4.12/1.37/0.46 nM. • (4) The 96-well plate cultured for 24 h was taken out from the incubator, and the culture medium in the 96-well plate was carefully aspirated and discarded. A positive control group, test compound groups, and a DMSO (5‰) control group were set, and 10 µL of the corresponding compound was added to each group. […]

U937 cells = experiment: Inhibition of TNF-α-induced necroptosis of U937 cells (CCK-8 assay); type: cell-based, human; conditions: Homo sapiens, U-937, TNF-α 20 ng/mL + BV6 2 µM + Z-VAD-FMK 20 µM, 18 h
Excerpt: Example 56: Inhibition of TNF-α-Induced Necroptosis of U937 Cells by Compounds
• 1. Experimental reagents: RPMI-1640 culture medium, fetal bovine serum, penicillin-streptomycin, TNF-α (MCE, HY-P7058), BV6 (MCE, HY-16701), Z-VAD-FMK (MCE, HY-16658B), and CCK-8 (Dalian Meilun Biotech Co., Ltd., MA0218). • 2. Experimental instruments: medical low-temperature freezer (Thermo Fisher scientific, 902-ULTS), electrically heated thermostatic water bath (Shanghai Bluepard Instruments Co., Ltd., CD-420), low-speed centrifuge (ANHUI USTC Zonkia Scientific Instruments Co., Ltd, SC-3616), carbon dioxide incubator (Shanghai Bluepard Instruments Co., Ltd., BPN-150CH(UV)), inverted microscope (Olympus, CKX53), multi-functional microplate reader (Thermo Tecan, SPARK), class-II biosafety cabinet (AIRTECH, BSC-1304IIA2), and desktop cell counter (Thermo Fisher Scientific, Countess II). • 3. Cell culturing: U937 cells (human histiocytic lymphoma cells) were cultured in an RPMI-1640 culture solution containing 10% fetal bovine serum and 1% penicillin-streptomycin solution in a 5% CO2 incubator at 37 °C and a saturated humidity. The cell culture flask was vertically placed in the incubator. A T25 culture flask was used as an example, the culture solution in the flask was 6-8 mL, and culture medium changes and cell passaging were performed 3-4 times a week. • 4. […] The culture medium was taken out from the freezer and transferred to the water bath for pre-heating. An appropriate amount of culture medium was then taken for use. • (2) The cell suspension was transferred to a 15 mL sterile centrifuge tube and centrifuged at 850 rpm for 4 min to collect U937 cells. • (3) The supernatant was carefully discarded, and an appropriate amount of culture medium was added. The mixture was gently pipetted using a pipette to homogenize the cells and thus prepare a single-cell suspension, and the cells were counted. • (4) The cells were diluted to 4 × 10^5/mL and seeded into a 96-well plate at 90 µL/well, such that the cell density in the 96-well plate was 3.6 × 10 ^4 cells/well. The cells were incubated in a 5% CO 2 incubator at 37 °C and a saturated humidity for 6 h, followed by the addition of compounds. • 4.2 Dilution and addition of compounds: • (1) TNF-α was dissolved in PBS to obtain a 100 µg/mL stock solution and aliquoted; Z-VAD-FMK was dissolved in DMSO to obtain a 10 mM stock solution and aliquoted; BV6 was dissolved in DMSO to obtain a 10 mM stock solution and aliquoted; GSK2982772 was dissolved in DMSO to obtain a 10 mM stock solution and aliquoted. One aliquot of each stock solution was stored at -20 °C for immediate use, while the remaining aliquots were stored at - 80 °C and used within their shelf life. • (2) RPMI-1640 culture medium containing TNF-α, BV6, and Z-VAD-FMK was prepared (5 µL/per well), such that the final concentrations of TNF-α, BV6, and Z-VAD-FMK were 20 ng/mL, 2 µM, and 20 µM, respectively. • (3) Each target compound was three-fold diluted with a culture medium to 8 concentration gradients, with each concentration set in duplicate (5 µL/well). The final concentrations of each target compound were 1000.00/333.33/111.11/37.04/12.35/4.12/1.37/0.46 nM. • (4) The 96-well plate containing 90 µL of cell suspension was taken out from an incubator, and a positive control group, test compound groups, and a DMSO (5‰) control group were set. 5 µL of RPMI-1640 culture solution containing TNF-α, BV6, and Z-VAD-FMK and 5 µL of culture solution containing the test compound were added to the positive control group and the test compound groups. After compound addition, the mixtures were cultured for 18 h, followed by the CCK-8 assay. • (5) The 96-well plate was taken out, and the CCK-8 reagent was carefully added at 10 µL/well. The mixtures were incubated at 37 °C for 2-4 h, and the absorbance value was measured at a wavelength of 450 nm. • 5. Evaluation of inhibitory activity of compounds on TNF-α-induced necroptosis of U937 [formula] […]

Row | Compound | EC50 (HT-29 cells) | EC50 (U937 cells)
1 | O=C(NC1CCc2cc(C#Cc3ccncc3)cc3c2N(CC3)C1=O)c1nnc(Cc2c(Cl)cccc2Cl)[nH]1 (stereo not drawn) [Compound I-13, 5-(2,6-dichlorobenzyl)-N-(4-oxo-9-(pyridin-4-ylethynyl)-1,2,3,4,6,7-hexahydroazepino[3,2,1-hi]indol-3-yl)-4H-1,2,4-triazole-3-carboxamide] | > 200 nM | > 200 nM
2 | Cn1cc(C#Cc2cc3c4c(c2)CCN4C(=O)C(NC(=O)c2cccc(Oc4ccccc4)n2)CC3)cn1 (stereo not drawn) [Compound V-1, N-(9-((1-methyl-1H-pyrazol-4-yl)ethynyl)-4-oxo-1,2,3,4,6,7-hexahydroazepino[3,2,1-hi]indol-3-yl)-6-phenoxypicolinamide] | > 200 nM | > 200 nM
3 | Cn1cc(C#Cc2cc3c4c(c2)CCN4C(=O)C(NC(=O)c2ccc(Oc4ccccc4)cn2)CC3)cn1 (stereo not drawn) [Compound V-2, N-(9-((1-methyl-1H-pyrazol-4-yl)ethynyl)-4-oxo-1,2,3,4,6,7-hexahydroazepino[3,2,1-hi]indol-3-yl)-5-phenoxypicolinamide] | > 200 nM | > 200 nM
4 | O=C(NC1CCc2ccc(C#Cc3ccccn3)c3c2N(CC3)C1=O)c1nnc(Cc2ccccc2)[nH]1 (stereo not drawn) [II-1, 5-benzyl-N-(4-oxo-8-(pyridin-2-ylethynyl)-1,2,3,4,6,7-hexahydroazepino[3,2,1-hi]indol-3-yl)-4H-1,2,4-triazole-3-carboxamide] | 10 to 100 nM | 10 to 100 nM
5 | O=C(NC1CCc2ccc(C#Cc3cccnc3)c3c2N(CC3)C1=O)c1nnc(Cc2ccccc2)[nH]1 (stereo not drawn) [II-2, 5-benzyl-N-(4-oxo-8-(pyridin-3-ylethynyl)-1,2,3,4,6,7-hexahydroazepino[3,2,1-hi]indol-3-yl)-4H-1,2,4-triazole-3-carboxamide] | 10 to 100 nM | 100 to 200 nM
6 | O=C(NC1CCc2ccc(C#CC3CC3)c3c2N(CC3)C1=O)c1nnc(Cc2ccccc2)[nH]1 (stereo not drawn) [II-3, 5-benzyl-N-(8-(cyclopropylethynyl)-4-oxo-1,2,3,4,6,7-hexahydroazepino[3,2,1-hi]indol-3-yl)-4H-1,2,4-triazole-3-carboxamide] | 100 to 200 nM | > 200 nM
7 | O=C(NC1CCc2ccc(C#Cc3ccncc3)c3c2N(CC3)C1=O)c1nnc(Cc2ccccc2)[nH]1 (stereo not drawn) [II-4, 5-benzyl-N-(4-oxo-8-(pyridin-4-ylethynyl)-1,2,3,4,6,7-hexahydroazepino[3,2,1-hi]indol-3-yl)-4H-1,2,4-triazole-3-carboxamide] | 100 to 200 nM | 10 to 100 nM
8 | O=C(NC1CCc2cc(C#Cc3ccncc3)cc3c2N(CC3)C1=O)c1ncn(Cc2c(F)cccc2F)n1 (stereo not drawn) [III-2, 1-(2,6-difluorobenzyl)-N-(4-oxo-9-(pyridin-4-ylethynyl)-1,2,3,4,6,7-hexahydroazepino[3,2,1-hi]indol-3-yl)-1H-1,2,4-triazole-3-carboxamide] | 10 to 100 nM | < 5 nM
9 | O=C(NC1CCc2cc(C#Cc3ccncc3)cc3c2N(CC3)C1=O)c1ncn(Cc2ccccc2)n1 (stereo not drawn) [III-3, 1-benzyl-N-(4-oxo-9-(pyridin-4-ylethynyl)-1,2,3,4,6,7-hexahydroazepino[3,2,1-hi]indol-3-yl)-1H-1,2,4-triazole-3-carboxamide] | 10 to 100 nM | 10 to 100 nM
10 | CC(C)(O)C#Cc1cc2c3c(c1)CCN3C(=O)C(NC(=O)c1ncn(Cc3c(F)cccc3F)n1)CC2 (stereo not drawn) [III-4, 1-(2,6-difluorobenzyl)-N-(9-(3-hydroxy-3-methylbut-1-yn-1-yl)-4-oxo-1,2,3,4,6,7-hexahydroazepino[3,2,1-hi]indol-3-yl)-1H-1,2,4-triazole-3-carboxamide] | < 5 nM | < 5 nM
11 | COCC#Cc1cc2c3c(c1)CCN3C(=O)C(NC(=O)c1ncn(Cc3c(F)cccc3F)n1)CC2 (stereo not drawn) [III-5, 1-(2,6-difluorobenzyl)-N-(9-(3-methoxyprop-1-yn-1-yl)-4-oxo-1,2,3,4,6,7-hexahydroazepino[3,2,1-hi]indol-3-yl)-1H-1,2,4-triazole-3-carboxamide] | < 5 nM | < 5 nM
12 | O=C(NC1CCc2cc(C#CC3CC3)cc3c2N(CC3)C1=O)c1ncn(Cc2c(F)cccc2F)n1 (stereo not drawn) [III-6, N-(9-(cyclopropylethynyl)-4-oxo-1,2,3,4,6,7-hexahydroazepino[3,2,1-hi]indol-3-yl)-1-(2,6-difluorobenzyl)-1H-1,2,4-triazole-3-carboxamide] | 5 to 10 nM | 10 to 100 nM
